Laboratory results from patent US6803030B2, “Bile acids conjugates with metal ion chelates and the use thereof” (Bracco Imaging S.p.A., priority 2000, dated 2004).

Assay: Pharmacokinetics screening in rats (biliary and urinary excretion, residual tissue content of gadolinium by ICP-AES)
Format: in vivo
Conditions: for Biliary % of the injected dose / Urinary % of the injected dose: anaesthetised CD(SD)BR male rats, i.v. 0.1 mmol/kg
Protocol: The experimentation was performed with the complex compound of example 1.
The screening was performed in 3 anaesthetised CD(SD)BR male rats (Charles River Italia).
The animals were maintained according to EEC Council Directive […] as included in Italian law DL116/92 (experimental typology KIN 3).
The contrast agent was injected in the vena saphena at the single dose of 0.1 mmol.kg^−1, injection rate of 6 mL-min^−1.
After the administration of the complex compound, the collection of the biological fluids in the anaesthetised rats was performed by cannulation of urinary bladder and biliary duct. The urine was collected at 0 to 60, 60 to 120, 120 to 240, 240 to 480 min after injection; the bile at −30 to 0, 0 to 15, 15 to 30, 30 to 60, 60 to 120, 120 to 240, 240 to 480 min after injection.
Animals were killed at the end of the studies by exanguination from abdominal aorta.
Blood, liver and kidneys were collected after the sacrifice for the assay of gadolinium by inductively coupled plasma atomic emission ICP-AES.

[1] = anaesthetised rats, intravenous, 0 to 480 min period
[2] = anaesthetised rats, intravenous, at 480 min after administration

Substance: Gadolinium complex of [3α[3(S),4(S)],5β,12α]-3-[[[trans-3,4-bis[[[5-[bis[2-[bis(carboxymethyl)amino]ethyl]amino]-5-carboxypentyl]amino]carbonyl]-1-pyrrolidinyl]carbonyl]oxy]-12-hydroxycholan-24-oic acid salified with sodium (1:5) [Example 1]
- Biliary % of the injected dose (collection time 0 to 15 min): 0.0102 ± 0.0010 % of the injected dose
- Biliary % of the injected dose (collection time 0 to 30 min): 0.0208 ± 0.0012 % of the injected dose
- Biliary % of the injected dose (collection time 0 to 60 min): 0.0374 ± 0.0023 % of the injected dose
- Urinary % of the injected dose (collection time 0 to 60 min): 11.2 ± 4.6 % of the injected dose
- Biliary % of the injected dose (collection time 0 to 120 min): 0.0561 ± 0.0052 % of the injected dose
- Urinary % of the injected dose (collection time 0 to 120 min): 18.6 ± 5.0 % of the injected dose
- Biliary % of the injected dose (collection time 0 to 240 min): 0.0950 ± 0.0073 % of the injected dose
- Urinary % of the injected dose (collection time 0 to 240 min): 27.9 ± 5.3 % of the injected dose
- Biliary % of the injected dose (collection time 0 to 480 min): 0.175 ± 0.020 % of the injected dose
- Urinary % of the injected dose (collection time 0 to 480 min): 36.2 ± 2.7 % of the injected dose
- biliary excretion [1]: 0.175 % of ID
- urinary excretion [1]: 36 % of ID
- residual content in kidney [2]: 6.7 % of the injected dose
- residual content in liver [2]: 2.564 % of the injected dose
- residual content in plasma [2]: 14.3 % of the injected dose
